# Experimental data: ChEMBL document CHEMBL6087388, “Hydrogen peroxide responsive theranostics for cancer-selective activation of DNA alkylators and real-time fluorescence monitoring in living cells” (Eur J Med Chem, 2024); call rule not given here
# What was measured:
# [1] = Drug localization in mitochondria of human MDA-MB-468 cells assessed as fluorescence at 5 uM pretreated with paraquat for […] by MitoTracker Red CMXRos based confocal microscopic analysis; format: ADME; conditions: time 1.5 hrs
# [2] = Drug localization in mitochondria of human MDA-MB-468 cells assessed as accumulation of compound in mitochondria at 5 uM incubated for 0.5 hrs and measured after […] by MitoTracker Red CMXRos based confocal microscopic analysis; format: ADME; conditions: mda-mb-468, 2 h
# [3] = Drug localization in nucleus of human MDA-MB-468 cells assessed as accumulation of compound in nucleus at 5 uM pretreated with paraquat for 10 hrs followed by compound addition and measured after […] by SYTO 9 or Hoechst 33342 staining based confocal microscopic analysis; format: ADME, subcellular; conditions: mda-mb-468, 10 h
# MCF-10A [4] = assay: Induction of DNA damage in human MCF-10A cells at 10 uM incubated for 48 hrs by Alkaline comet based EVOS digital inverted microscopic analysis; format: toxicity, cell-based
# [5] = Drug localization in mitochondria of human MDA-MB-468 cells assessed as blue fluorescence at 5 uM incubated for 2 hrs by MitoTracker Red CMXRos based confocal microscopic analysis; format: ADME; conditions: mda-mb-468, 2 h
# [6] = Drug localization in nucleus of human MDA-MB-468 cells assessed as accumulation of compound in nucleus at 5 uM incubated for 0.5 hrs and measured after […] by SYTO 9 or Hoechst 33342 staining based confocal microscopic analysis; format: ADME, subcellular; conditions: mda-mb-468, 2 h
# MCF-10A [7] = assay: Induction of DNA damage in human MCF-10A cells at 5 uM incubated for 48 hrs by Alkaline comet based EVOS digital inverted microscopic analysis; format: toxicity, cell-based
# [8] = Photophysical property of the compound assessed as relative quantum yield at 2 uM in PBS and DMSO relative to quinine sulfate; format: physicochemical; conditions: buffer
Compound,Drug uptake [1],Drug uptake [2],Drug uptake [3],Activity (MCF-10A [4]),Drug uptake [5],Drug uptake [6],Activity (MCF-10A [7]),Activity [8]
CC1(C)OB(c2ccc3cc(-n4cc(CCCCCCCCCOCc5cc(N(CCCl)CCCl)ccc5B5OC(C)(C)C(C)(C)O5)nn4)c(=O)oc3c2)OC1(C)C,Active,Active,Not_active,Non-toxic,Not_active,Not_active,,
CC1(C)OB(c2ccc3c(c2)Oc2cc(B4OC(C)(C)C(C)(C)O4)ccc2C32OC(=O)c3cc(-n4cc(CCCCCCCCCOCc5cc(N(CCCl)CCCl)ccc5B5OC(C)(C)C(C)(C)O5)nn4)ccc32)OC1(C)C,Active,Active,Not_active,,Not_active,Not_active,,
CC1(C)OB(c2ccc(N(CCCl)CCCl)cc2COCc2cn(-c3cc4ccc(O)cc4oc3=O)nn2)OC1(C)C,,,,,Active,Not_active,Non-toxic,0.17
